The source of these data is patent publication US20250041433A1, “PROTEIN-ANTIVIRAL COMPOUND CONJUGATES” (REGENERON PHARMACEUTICALS, INC., priority 2021, published 2025).

The test system of the test is H1N1 A/Puerto Rico/08/1934-GFP influenza virus. As to the kind of experiment: organism not typed. As to conditions: for IC50: MDCK, 20 h, read-out: Antiviral activity of VX-787 free payloads IC50; for antiviral activity of VX-787 derivatives (in words): free payloads. It is filed as cell-based, H1N1 A/Puerto Rico/08/1934 influenza virus.

`O=C(O)[C@H]1C2CCC(CC2)[C@@H]1Nc1nc(-c2c(CO)[nH]c3ncc(F)cc23)ncc1F` [Compound 15]: the half-maximal inhibitory concentration (IC50) (in general, the concentration at which inhibition is half-maximal) is 240 nM and the “antiviral activity of VX-787 derivatives (in words)” value is “displayed antiviral activity”. For `O=C(NO)[C@H]1C2CCC(CC2)[C@@H]1Nc1nc(-c2c[nH]c3ncc(F)cc23)ncc1F` [Compound 20a] the same measures were 3.77 nM and “displayed antiviral activity”. The matching figures for `O=C(NO)[C@H]1C2CCC(CC2)[C@@H]1Nc1nc(-c2c[nH]c3ncc(F)cc23)nc2sccc12` [Compound 20b]: 9.64 nM and “displayed antiviral activity”. For `Cn1ccc2c(N[C@H]3C4CCC(CC4)[C@@H]3C(=O)NO)nc(-c3c[nH]c4ncc(F)cc34)nc21` [Compound 20c], the IC50 was 13.8 nM and the “antiviral activity of VX-787 derivatives (in words)” value is “displayed antiviral activity”. `O=C(NO)[C@H]1C2CCC(CC2)[C@@H]1Nc1nc(-c2n[nH]c3ncc(F)cc23)ncc1F` [Compound 57]: the IC50 is 2 nM. Same read-out and setting: the result for `O=C(NO)[C@H]1C2CCC(CC2)[C@@H]1Nc1nc(-c2n[nH]c3ncc(F)cc23)nc2sccc12` [Compound 62] reads 2.19 nM.
